Results on seven compounds are retold here after PubChem BioAssay (NCI).

Among the test systems are BT-549 breast; HCC-2998 colon; MCF7 breast; NCI-H522 lung; OVCAR-4 ovarian; OVCAR-5 ovarian; RXF 393 renal; SK-OV-3 ovarian; SNB-75 CNS; TK-10 renal.
Common to all, as to assay: growth of human tumour cells (NCI), 48 h

Where “and” joins values, the source holds several entries; their conditions need not be identical. Equal values may be shown once.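 Cultured in 96-well plates, cells were exposed to test compound for 48 hours across five concentrations. Here, GI50 denotes the concentration required for 50% inhibition of growth. TGI denotes the concentration required for complete inhibition of growth.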

Regarding `COc1cc2c(cc1OCCCN1CCN(C(=S)SCCC(C#N)(c3ccccc3)c3ccccc3)CC1)N=C[C@@H]1CCCN1C2=O`, the GI50 was 1.07 µM in the assay on BT-549 breast; 1.51 µM in the assay on HCC-2998 colon; 0.33 µM with MCF7 breast; 0.523 µM in the assay with NCI-H522 lung; 2.15 µM in the assay with OVCAR-4 ovarian; 1.14 µM in the assay on OVCAR-5 ovarian. The GI50 in the assay with RXF 393 renal was 0.192 µM; with SK-OV-3 ovarian, 2.52 µM; in the assay with SNB-75 CNS, 1.31 µM; in the assay on TK-10 renal, 1.09 µM. Also, the TGI in the assay with BT-549 breast is 3.79 µM; in the assay on HCC-2998 colon, 2.94 µM; in the assay with MCF7 breast, 1.53 µM; with NCI-H522 lung it was 2.43 µM; in the assay with OVCAR-4 ovarian, above 43.7 µM; with OVCAR-5 ovarian, 2.44 µM. The TGI in the assay with RXF 393 renal came to 0.36 µM; with SK-OV-3 ovarian, 6.39 µM; in the assay on SNB-75 CNS it was 2.9 µM; with TK-10 renal it was 2.87 µM.
As to `COC(=O)c1cccc(NC(=O)c2ccc(NC3=C(Cl)C(=O)N(Cc4ccccc4)C3=O)cc2)c1`, the GI50 in the assay on BT-549 breast is 15.3 µM; with HCC-2998 colon, 2.04 µM; in the assay with MCF7 breast it was 22.3 µM; in the assay on NCI-H522 lung it was 7.52 µM; in the assay on OVCAR-4 ovarian it was 16.1 µM; in the assay with OVCAR-5 ovarian, 3.63 µM. Moreover, the GI50 in the assay with RXF 393 renal is 13.9 µM; with SK-OV-3 ovarian, 84 µM; in the assay with SNB-75 CNS it was 18.3 µM; with TK-10 renal it was 23.4 µM. For the same compound, the TGI in the assay on BT-549 breast was found to be 31.9 µM; in the assay on HCC-2998 colon, 3.77 µM; with MCF7 breast, 49.7 µM; with NCI-H522 lung, 32.8 µM; in the assay with OVCAR-4 ovarian it was 56.1 µM; in the assay on OVCAR-5 ovarian, 29.4 µM. The TGI in the assay on RXF 393 renal is 60.2 µM; with SK-OV-3 ovarian, above 100 µM; in the assay with SNB-75 CNS, 62.6 µM; in the assay on TK-10 renal it was 63.4 µM.
In the case of `c1ccc(CC(Nc2cccnc2)c2ccccc2)cc1` (centres undefined), the TGI is 65.6 µM in the assay with BT-549 breast; 39.9 µM with HCC-2998 colon; above 100 µM with MCF7 breast; 60.4 µM in the assay with NCI-H522 lung; above 100 µM in the assay on OVCAR-4 ovarian; 98.8 µM in the assay with OVCAR-5 ovarian. Further, the TGI is 51.2 µM in the assay on RXF 393 renal, above 100 µM with SK-OV-3 ovarian, 60.1 µM in the assay on SNB-75 CNS and 94.9 µM with TK-10 renal.
As for `COC(=O)[C@]12CC[C@@H](C)[C@H](C)[C@@H]1C1=CC[C@@H]3[C@@](C)(CC#N)C4=C(C[C@@]3(C)[C@]1(C)CC2)OC[C@]4(C)C=O`, the GI50 is 4.08 µM in the assay with BT-549 breast; 5.81 µM in the assay on HCC-2998 colon; 3.05 µM in the assay with MCF7 breast; 14.7 µM in the assay on NCI-H522 lung; 4.15 µM in the assay with OVCAR-4 ovarian; 14.1 µM in the assay with OVCAR-5 ovarian. The GI50 in the assay with RXF 393 renal was 12 µM; in the assay on SK-OV-3 ovarian, 4.92 µM; with SNB-75 CNS, 3.22 µM; in the assay with TK-10 renal it was 8.07 µM. Also, the TGI is 32.9 µM in the assay on BT-549 breast; 33 µM with HCC-2998 colon; 11.4 µM in the assay with MCF7 breast; 46.9 µM in the assay with NCI-H522 lung; above 100 µM in the assay with OVCAR-4 ovarian; 35.8 µM with OVCAR-5 ovarian. In addition, the TGI in the assay with RXF 393 renal was 36.1 µM; in the assay on SK-OV-3 ovarian, 62.6 µM; with SNB-75 CNS, above 100 µM; in the assay on TK-10 renal, above 100 µM.
As for `CC(=O)Nc1cc2c3c(cccc3c1)-c1ccccc1-2`, the GI50 in the assay with BT-549 breast was 64.6 µM; with HCC-2998 colon, 18.8 µM; with MCF7 breast it was above 100 µM; in the assay with NCI-H522 lung, above 100 µM; in the assay on OVCAR-4 ovarian, above 100 µM; in the assay with OVCAR-5 ovarian, 16.7 µM. In addition, the GI50 in the assay on RXF 393 renal was 15.8 µM; in the assay with SK-OV-3 ovarian it was 26.5 µM; with SNB-75 CNS, above 100 µM; in the assay with TK-10 renal, 18.1 µM. Besides, the TGI in the assay on BT-549 breast was above 100 µM; with HCC-2998 colon, 52.5 µM; in the assay on MCF7 breast it was above 100 µM; in the assay with NCI-H522 lung, above 100 µM; with OVCAR-4 ovarian it was above 100 µM; in the assay on OVCAR-5 ovarian, 35.7 µM. The TGI was 34.9 µM with RXF 393 renal, 84.3 µM with SK-OV-3 ovarian, above 100 µM in the assay on SNB-75 CNS and 32.5 µM in the assay with TK-10 renal.
In the case of `O=C(/C=C/C=C/c1ccc2c(c1)OCO2)N/N=C\c1ccc(O)cc1O`, the GI50 with BT-549 breast was 2.25 µM; in the assay on HCC-2998 colon, 2.44 µM; in the assay with MCF7 breast, 2.6 µM; with NCI-H522 lung, 2.9 µM; in the assay with OVCAR-4 ovarian it was 0.459 µM; in the assay on OVCAR-5 ovarian, 3.87 µM. The GI50 in the assay with RXF 393 renal is 1.74 µM; with SK-OV-3 ovarian, 3.43 µM; in the assay with SNB-75 CNS it was 1.89 µM; in the assay with TK-10 renal, 2.95 µM. Further, the TGI was 7.49 µM in the assay on BT-549 breast; 18.3 µM with HCC-2998 colon; 13.7 µM in the assay with MCF7 breast; 15.3 µM in the assay on NCI-H522 lung; 9.82 µM with OVCAR-4 ovarian; 27.4 µM in the assay with OVCAR-5 ovarian. The TGI was 6.88 µM with RXF 393 renal, 20.9 µM in the assay with SK-OV-3 ovarian, 9.41 µM in the assay on SNB-75 CNS and 33 µM with TK-10 renal.
On to `CCC(C)C1NC(=O)C(NC(=O)C(CC(C)C)N(C)C(=O)[C@@H]2CC(O)CN2C(=O)[C@H](C)O)C(C)OC(=O)[C@H](Cc2ccc(OC)cc2)N(C)C(=O)[C@@H]2CCCN2C(=O)[C@H](CC(C)C)NC(=O)C(C)C(=O)[C@H](C(C)C)OC(=O)CC1O` (some centres undefined), for which the GI50 in the assay with BT-549 breast was 0.0259 µM; in the assay with HCC-2998 colon, below 0.01 µM; in the assay on MCF7 breast it was below 0.01 µM; in the assay with NCI-H522 lung it was 0.0208 µM; with OVCAR-4 ovarian, 0.0246 µM; in the assay with OVCAR-5 ovarian, 0.417 µM. Also, the GI50 with RXF 393 renal is below 0.01 µM; with SK-OV-3 ovarian it was 0.0209 µM; in the assay with SNB-75 CNS, 0.0338 µM; in the assay with TK-10 renal, 0.224 µM. Also, the TGI in the assay with BT-549 breast is 0.855 µM and 0.233 µM; with HCC-2998 colon it was 0.637 µM and 0.399 µM; in the assay with NCI-H522 lung it was 0.902 µM and 0.234 µM; in the assay on OVCAR-4 ovarian, 1.14 µM and 1.17 µM; in the assay with OVCAR-5 ovarian it was 2.53 µM and 2.14 µM; with RXF 393 renal, 0.481 µM and 0.112 µM. The TGI was 1.11 µM and 0.404 µM in the assay with SK-OV-3 ovarian; 1.25 µM and 0.614 µM in the assay with SNB-75 CNS; 4.52 µM and 2.05 µM with TK-10 renal.
